Data from ChEMBL document CHEMBL1201862, “PubChem BioAssay data set” (2004).
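Step 1: Grow cells in 96-well plates. Step 2: Expose to compound for 48 hours at 5 concentrations. Step 3: Interpolate endpoints linearly; if unreached, use highest concentration. GI50 is the concentration that inhibits growth by half.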 Activity calls are given as the source filed them. Cut-off read from the data, not from the text of the source: active = GI50 up to about 1.1 µM and inactive = higher.

Experiments:
Assay in all cases: NCI tumour cell line growth inhibition, 48 h
A549 = test system: A549
EKVX = test system: EKVX
HCT-116 = test system: HCT-116
M14 = test system: M14
MOLT-4 = test system: MOLT-4
Malme-3M = test system: Malme-3M
NCI-H460 = test system: NCI-H460
NCI-H522 = test system: NCI-H522
OVCAR-5 = test system: OVCAR-5
RPMI-8226 = test system: RPMI-8226
SF-539 = test system: SF-539
SK-MEL-28 = test system: SK-MEL-28
SK-OV-3 = test system: SK-OV-3
SNB-19 = test system: SNB-19
U-251 = test system: U-251
A498 = test system: A498
CAKI-1 = test system: CAKI-1

Row | SMILES | GI50 (A549) | GI50 (EKVX) | GI50 (HCT-116) | GI50 (M14) | GI50 (MOLT-4) | GI50 (Malme-3M) | GI50 (NCI-H460) | GI50 (NCI-H522) | GI50 (OVCAR-5) | GI50 (RPMI-8226) | GI50 (SF-539) | GI50 (SK-MEL-28) | GI50 (SK-OV-3) | GI50 (SNB-19) | GI50 (U-251) | GI50 (A498) | GI50 (CAKI-1)
1 | COc1ccc(C(=O)C(C(=O)C(=O)NCCCNC(=O)C(=O)C(C(=O)c2ccc(OC)cc2)c2ccc(OC)cc2)c2ccc(OC)cc2)cc1 (centres undefined) | > 100 µM (inactive) | > 100 µM (inactive) | > 100 µM (inactive) | > 100 µM (inactive) | > 100 µM (inactive) | > 100 µM (inactive) | > 100 µM (inactive) | > 100 µM (inactive) | > 100 µM (inactive) | > 100 µM (inactive) | > 100 µM (inactive) | > 100 µM (inactive) | > 100 µM (inactive) | > 100 µM (inactive) | > 100 µM (inactive) | – | –
2 | Cc1ccc(Oc2ccc(C)cc2[N+](=O)[O-])cc1 | 92.9 µM (inactive) | 48.3 µM (inactive) | 53.6 µM (inactive) | 96.6 µM (inactive) | 37.4 µM (inactive) | > 100 µM (inactive) | 90.8 µM (inactive) | – | 38.2 µM (inactive) | 57.8 µM (inactive) | > 100 µM (inactive) | 65.6 µM (inactive) | > 100 µM (inactive) | – | 25.8 µM (inactive) | > 100 µM (inactive) | –
3 | COC1(OC)CCC2(C)OC(c3ccccc3)C1O2 (centres undefined) | > 100 µM (inactive) | > 100 µM (inactive) | > 100 µM (inactive) | > 100 µM (inactive) | > 100 µM (inactive) | > 100 µM (inactive) | > 100 µM (inactive) | > 100 µM (inactive) | > 100 µM (inactive) | > 100 µM (inactive) | > 100 µM (inactive) | > 100 µM (inactive) | > 100 µM (inactive) | > 100 µM (inactive) | > 100 µM (inactive) | – | > 100 µM (inactive)
4 | COc1ccc(-c2cc(N3CCN(c4ccc(Cl)cc4)CC3)c(C#N)c(=O)o2)cc1 | 10.1 µM (inactive) | 11.4 µM (inactive) | 12.6 µM (inactive) | 35.1 µM (inactive) | – | 7.74 µM (inactive) | 10.5 µM (inactive) | – | > 100 µM (inactive) | 12.8 µM (inactive) | 3.55 µM (inactive) | 6.9 µM (inactive) | – | 2.93 µM (inactive) | 21.2 µM (inactive) | 16.4 µM (inactive) | 8.71 µM (inactive)
5 | COc1ccc(S(=O)(=O)c2ccccc2[N+](=O)[O-])cc1 | > 100 µM (inactive) | > 100 µM (inactive) | > 100 µM (inactive) | > 100 µM (inactive) | 92.3 µM (inactive) | 81.1 µM (inactive) | > 100 µM (inactive) | – | > 100 µM (inactive) | > 100 µM (inactive) | > 100 µM (inactive) | 53.5 µM (inactive) | > 100 µM (inactive) | > 100 µM (inactive) | 82.6 µM (inactive) | > 100 µM (inactive) | –
6 | O=c1ccc2ccccc2o1 [COUMARIN] | > 100 µM (inactive) | > 100 µM (inactive) | > 100 µM (inactive) | > 100 µM (inactive) | > 100 µM (inactive) | > 100 µM (inactive) | > 100 µM (inactive) | > 100 µM (inactive) | > 100 µM (inactive) | > 100 µM (inactive) | > 100 µM (inactive) | > 100 µM (inactive) | > 100 µM (inactive) | > 100 µM (inactive) | > 100 µM (inactive) | > 100 µM (inactive) | –
7 | COC(=O)[C@]1(C)CCCC2(C)C1CC[C@H]1C=C(C)[C@H]3CCC12C3 (some centres undefined) | > 100 µM (inactive) | – | 40.3 µM (inactive) | > 100 µM (inactive) | > 100 µM (inactive) | > 100 µM (inactive) | 44.5 µM (inactive) | 45 µM (inactive) | > 100 µM (inactive) | > 100 µM (inactive) | > 100 µM (inactive) | > 100 µM (inactive) | > 100 µM (inactive) | > 100 µM (inactive) | > 100 µM (inactive) | – | > 100 µM (inactive)
8 | COC(=O)Cc1cc(=O)n2c([nH]c3ccccc32)c1C#N | > 100 µM (inactive) | > 100 µM (inactive) | > 100 µM (inactive) | > 100 µM (inactive) | > 100 µM (inactive) | 81.3 µM (inactive) | 35.9 µM (inactive) | – | > 100 µM (inactive) | 56.4 µM (inactive) | > 100 µM (inactive) | > 100 µM (inactive) | 36.1 µM (inactive) | > 100 µM (inactive) | 49.3 µM (inactive) | > 100 µM (inactive) | > 100 µM (inactive)
9 | CC1=NN(C(=O)c2ccc(Cl)cc2)C(=O)/C1=C/c1cccc([N+](=O)[O-])c1 | > 100 µM (inactive) | > 100 µM (inactive) | > 100 µM (inactive) | > 100 µM (inactive) | – | > 100 µM (inactive) | > 100 µM (inactive) | > 100 µM (inactive) | > 100 µM (inactive) | > 100 µM (inactive) | > 100 µM (inactive) | > 100 µM (inactive) | > 100 µM (inactive) | > 100 µM (inactive) | > 100 µM (inactive) | > 100 µM (inactive) | > 100 µM (inactive)
10 | COc1nc(N)c(NC(C)=O)c(=O)n1C | > 100 µM (inactive) | > 100 µM (inactive) | > 100 µM (inactive) | > 100 µM (inactive) | > 100 µM (inactive) | > 100 µM (inactive) | > 100 µM (inactive) | – | > 100 µM (inactive) | > 100 µM (inactive) | > 100 µM (inactive) | > 100 µM (inactive) | – | > 100 µM (inactive) | > 100 µM (inactive) | > 100 µM (inactive) | > 100 µM (inactive)
11 | CC(=O)N[C@@H]1C(O)CN2C(=O)C(=O)O[C@H](C(O)CO)[C@@H]12 (some centres undefined) | > 100 µM (inactive) | > 100 µM (inactive) | > 100 µM (inactive) | – | > 100 µM (inactive) | > 100 µM (inactive) | > 100 µM (inactive) | > 100 µM (inactive) | > 100 µM (inactive) | > 100 µM (inactive) | > 100 µM (inactive) | > 100 µM (inactive) | > 100 µM (inactive) | > 100 µM (inactive) | > 100 µM (inactive) | > 100 µM (inactive) | –
12 | Cc1ccc2c(c1)C1C(CO2)C(c2ccccc2)=NN1c1ccccc1 (centres undefined) | > 100 µM (inactive) | > 100 µM (inactive) | > 100 µM (inactive) | – | 96.2 µM (inactive) | > 100 µM (inactive) | > 100 µM (inactive) | > 100 µM (inactive) | > 100 µM (inactive) | 45.7 µM (inactive) | > 100 µM (inactive) | > 100 µM (inactive) | > 100 µM (inactive) | > 100 µM (inactive) | > 100 µM (inactive) | > 100 µM (inactive) | –
13 | C/C=C1/C(=Cc2[nH]c(C=c3[nH]/c(=C/C4=NC(=O)C(CC)=C4C)c(C)c3CCC(=O)O)c(CCC(=O)O)c2C)NC(=O)C1C (centres undefined) | 10.5 µM (inactive) | 30.6 µM (inactive) | 2.13 µM (inactive) | 1.87 µM (inactive) | 1.95 µM (inactive) | 13.6 µM (inactive) | 13 µM (inactive) | 6.19 µM (inactive) | 8.49 µM (inactive) | – | 6.4 µM (inactive) | 47.6 µM (inactive) | 42.1 µM (inactive) | > 50 µM (inactive) | 7.48 µM (inactive) | – | 16.4 µM (inactive)
14 | Cc1nc(-n2nc(-c3ccccc3)cc2-c2ccccc2)sc1C(=O)/C=C/c1ccc(Cl)c(Cl)c1 | 25.6 µM (inactive) | 27 µM (inactive) | 26.7 µM (inactive) | 17.6 µM (inactive) | 11.8 µM (inactive) | 32.4 µM (inactive) | > 100 µM (inactive) | 10 µM (inactive) | 18.8 µM (inactive) | – | 18.3 µM (inactive) | 31.3 µM (inactive) | > 100 µM (inactive) | 16.3 µM (inactive) | 11.6 µM (inactive) | – | 24.8 µM (inactive)
15 | CC(=O)Nc1ccc(-c2nnc(SCC(=O)Nc3ccccc3)o2)cc1 | > 100 µM (inactive) | – | 31.2 µM (inactive) | 86.3 µM (inactive) | > 100 µM (inactive) | > 100 µM (inactive) | > 100 µM (inactive) | 60.3 µM (inactive) | > 100 µM (inactive) | 81.7 µM (inactive) | 71.1 µM (inactive) | > 100 µM (inactive) | > 100 µM (inactive) | – | 43.7 µM (inactive) | – | > 100 µM (inactive)
16 | Cc1ccc(/C=C/C(=O)c2ccc([N+](=O)[O-])cc2)cc1 | > 100 µM (inactive) | > 100 µM (inactive) | > 100 µM (inactive) | > 100 µM (inactive) | > 100 µM (inactive) | > 100 µM (inactive) | > 100 µM (inactive) | 56.4 µM (inactive) | > 100 µM (inactive) | – | > 100 µM (inactive) | > 100 µM (inactive) | > 100 µM (inactive) | > 100 µM (inactive) | 21.2 µM (inactive) | 0.815 µM (active) | > 100 µM (inactive)
17 | CN1C(=N\S(=O)(=O)c2ccc(Cl)cc2)/C(=N/N=P(c2ccccc2)(c2ccccc2)c2ccccc2)c2ccccc21 | 95.7 µM (inactive) | > 100 µM (inactive) | > 100 µM (inactive) | > 100 µM (inactive) | > 100 µM (inactive) | > 100 µM (inactive) | > 100 µM (inactive) | > 100 µM (inactive) | > 100 µM (inactive) | – | > 100 µM (inactive) | > 100 µM (inactive) | > 100 µM (inactive) | > 100 µM (inactive) | > 100 µM (inactive) | > 100 µM (inactive) | > 100 µM (inactive)
18 | CC1(C)OC(C(N)=O)=C(C(N)=O)O1 | > 100 µM (inactive) | > 100 µM (inactive) | > 100 µM (inactive) | > 100 µM (inactive) | > 100 µM (inactive) | > 100 µM (inactive) | > 100 µM (inactive) | > 100 µM (inactive) | > 100 µM (inactive) | – | > 100 µM (inactive) | > 100 µM (inactive) | > 100 µM (inactive) | > 100 µM (inactive) | > 100 µM (inactive) | > 100 µM (inactive) | > 100 µM (inactive)
